From patent US7968575B2, “Nitric oxide donors and uses thereof” (priority 2004, dated 2011)

How the values were obtained:
isolated rat aorta = assay: In vitro induction of tolerance: vasorelaxation of aortic rings pre-exposed to the NO-releasing compound; format: cell-based; conditions: vasorelaxation in rings pre-treated with 0.44 mM of the compound versus control rings; in words
Procedure: Aortic rings were prepared as described hereinabove, and were exposed to 0.44 mM GTN (vehicle was water:ethanol:propyleneglycol at proportional ratio of 1:1:1) for 1 hour before CCRC construction, to thereby induce tolerance to nitroglycerine. At the end of the tolerance induction period, rings were thrice washed with the path buffer (Krebs-bicrbonate) every 15 minutes for the following hour and then CCRC for vasorelaxation on GTN-induced tolerance rings were constructed for GTN (pretreated versus untreated rings, FIG. 15), in order to verify the ability to induce and measure GTN tolerance induction in vitro
Attempted induction of tolerance to the NO-donating compounds of the present invention was performed under the same conditions as for GTN. Thus, in an exemplary experiment, rings were exposed to 0.44 mM solution of Pet-3 in the attempt to induce tolerance for Pet-3. CCRC were then measured for the vasorelaxing effect of Pet-3 on a group of rings which were pre-exposed to Pet-3 as to induce tolerance to Pet-3, and for an untreated control group. The above protocol was repeated with Pet-2, Pet-7, Pet-8, Pet-12, Pet-24, Pet-43, Pet-149 and Pet-152.

c-GMP [1] = assay: Cyclic-GMP measurement in aortic rat tissue (radioimmunoassay); format: cell-based; conditions: rat thoracic aorta, summary of Table 5; in words
Procedure: GTN (10^−6 M) was added to the chamber and, 1 minute after exposure to the drug, rings (usually 3-5) were taken, wrapped with aluminum foil and immediately frozen in liquid nitrogen for storage. Control sample group was treated with the vehicle solution only. At the time of analysis, rings were thawed, blotted over a dry gauzed and weighted. A known weight of tissue was homogenized in 2 ml ice-cold modified Hank's balanced salt solution containing (in gram/liter) NaCl 8; KCl 0.4; glucose 1; KH2PO4 0.06; Na2HPO4 0.047; Phenol red 0.017 and further containing 25 mM EDTA (disodium salt). The homogenate was centrifuged at 4000 g (force units) for 10 minutes at 2-4° C. and the supernatant was thereafter transferred into fresh pre-cooled test tube containing 1 ml of acetonitrile. The tubes were vortex mixed for a few seconds and subsequently centrifuged at 4000 g for 5 minutes at 2-4° C., to remove the precipitated protein. Each supernatant was transferred into a clean test tube and evaporated to dryness under a stream of nitrogen at 55° C. The dry residue was reconstituted with 10 volumes of Tris-EDTA buffer pH 7.5 (0.05 M Tris containing 4 mM EDTA). Aliquots of 100 μl of the reconstituted solution in duplicate were used for c-GMP measurements using Amersham RIA kit, as is described in Haj-Yehia & Benet [Pharmacology, 1995, 273, 1, pp. 94-100]. Standard curves were plotted with six concentrations (0, 0.5, 1, 2, 4 and 8 pmoles of c-GMP per tube).
The NO-tolerance effect of GTN and NO-donor compounds according to the present invention was measured by following the production of c-GMP in slices of thoracic aorta of rats. Thus, the production of c-GMP was measured as described in the methods section above for the reference NO-donor compound GTN, and for the NO-donors of the present invention Pet-2, Pet-3, Pet-7, Pet-8, Pet-10, Pet-12, Pet-24, Pet-59, Pet-147, Pet-149, Pet-152, Pet-154 and Pet-155.

[2] = system: anesthetized hypertensive Sprague-Dawley male rats; assay: Hypotensive effects: mean arterial pressure after iv bolus; format: in vivo, rat; conditions: rats pre-treated with phenylephrine, iv bolus doses; in words
Procedure: Mean arterial pressure (MAP) was monitored and determined during bolus infusion of Pet-2, Pet-3, Pet-7, Pet-8, Pet-12 and Pet-13. Briefly, polyethylene catheters (PE50) were inserted into the carotid artery and into the jugular vein of anesthetized hypertensive Sprague-Dawley male rats (200-300 grams). A blood pressure recorder was placed within the carotid artery. Phenylephrine (0.1 mg) was then injected and the mean arterial blood pressure (MABP) was monitored continuously until a stable baseline was reached. The hypotensive effects of intravenous (iv) bolus doses (0.1 mg of each tested compound) administered intravenously at the jugular vein in minimal volume of vehicle (0.2 ml per dose) were evaluated. Five minutes were allowed between each dose, during which the maximal decrease in MAP was recorded and a dose-response graph comparing the hypotensive effect of the compounds was constructed.

c-GMP [3] = assay: Induction of in vivo nitrate tolerance (cGMP in aorta isolated after 16 hour infusion); parameters: species or system rat; conditions: in words
Procedure: For c-GMP levels and tolerance development, the rat's thoracic aorta was isolated after exposure to the tested compound in vivo, and measured as described above in the in vitro assays.
Male Sprague Dawley rats (220 to 250 grams) were housed under constant temperature and humidity conditions. Light was maintained at a 12/12 light dark cycle. Except for 12 hours before the experiment, when food fasting was initiated, all rats had free access to standard rat pellet diet and tap water. The animals were anesthetized by intraperitoneal injection of ketamine and xylazine combination (50 and 10 milligram per kilogram, respectively). […] The catheters were filled with normal saline solution containing 1000 IU/ml of heparin and plugged with a metal pin. Catheters were externalized to the back of the neck region and secured by a polyester felt disk.
After implantation, the rats were individually housed until they regained their preoperative weight and appeared healthy (3 to 4 days post-operation). At this time point (day 0), an osmotic mini-pump (Alza Corp., Palo Alto, Calif.) delivering constant volume (10 μl/hour) of vehicle or drug was connected to one of the intravenous catheters.
For inducing tolerance to the tested NO-donor according to the present invention, the animals received 200 μg/hour of the tested compound for 16 hours (short-term-induced tolerance). A similar number of animals were processed by the same surgical procedure and received the vehicle alone (10 μl/hour of a solution consisting of 30% ethanol and 30% propylene glycol in sterile distilled water for injection).
At the end of the infusion periods used for the development of tolerance (16 hour), the rats were anesthetized as described above, the two catheters were externalized and the delivering catheters were disconnected from the mini-pump. The abdomen was opened by midline incision and the thoracic aorta were isolated, washed and cleaned from the surrounding tissues. Strips of the treated aortas were pooled in chambers containing Krebs-Hanseliet buffer (10 ml), and exposed to 1 μM of the tested NO-donor (final concentration) for 120 seconds. The tissues were quickly collected and frozen in liquid nitrogen for cGMP measurement, described hereinabove.

## O=[N+]([O-])OCC(CO[N+](=O)[O-])O[N+](=O)[O-] [GTN, glyceryl trinitrate, reference compound]
Isolated rat aorta
  tolerance induction in vitro: tolerance induced
c-GMP [1]
  c-GMP level following a repeated treatment: significantly reduced
[2]
  hypotensive effect on MAP following successive administrations: attenuation
c-GMP [3]; aorta of rats infused 200 μg/hour for 16 hours, then exposed to 1 μM compound for 120 seconds
  level of cGMP following a repeated treatment in vivo: decreased
c-GMP [3]; cGMP accumulation in isolated aorta of rats pre-treated in vivo with the compound
  tolerance induction in vivo: tolerance inducing effect
